Reference: ChEMBL document CHEMBL4725311, “Discovery of potent, orally bioavailable in vivo efficacious antagonists of the TLR7/8 pathway” (Bioorg Med Chem Lett, 2020)
pIC50: −log10 of the molar value.

molecular target: T1, Toll-like receptor 7 (Mus musculus, UniProt P58681); experiment: Antagonist activity at TLR7 in mouse splenocytes assessed as inhibition of ssRNA40-induced IL6 production; type: cell-based, Splenocyte; details: not given
T1 sequence (P58681 whole entry): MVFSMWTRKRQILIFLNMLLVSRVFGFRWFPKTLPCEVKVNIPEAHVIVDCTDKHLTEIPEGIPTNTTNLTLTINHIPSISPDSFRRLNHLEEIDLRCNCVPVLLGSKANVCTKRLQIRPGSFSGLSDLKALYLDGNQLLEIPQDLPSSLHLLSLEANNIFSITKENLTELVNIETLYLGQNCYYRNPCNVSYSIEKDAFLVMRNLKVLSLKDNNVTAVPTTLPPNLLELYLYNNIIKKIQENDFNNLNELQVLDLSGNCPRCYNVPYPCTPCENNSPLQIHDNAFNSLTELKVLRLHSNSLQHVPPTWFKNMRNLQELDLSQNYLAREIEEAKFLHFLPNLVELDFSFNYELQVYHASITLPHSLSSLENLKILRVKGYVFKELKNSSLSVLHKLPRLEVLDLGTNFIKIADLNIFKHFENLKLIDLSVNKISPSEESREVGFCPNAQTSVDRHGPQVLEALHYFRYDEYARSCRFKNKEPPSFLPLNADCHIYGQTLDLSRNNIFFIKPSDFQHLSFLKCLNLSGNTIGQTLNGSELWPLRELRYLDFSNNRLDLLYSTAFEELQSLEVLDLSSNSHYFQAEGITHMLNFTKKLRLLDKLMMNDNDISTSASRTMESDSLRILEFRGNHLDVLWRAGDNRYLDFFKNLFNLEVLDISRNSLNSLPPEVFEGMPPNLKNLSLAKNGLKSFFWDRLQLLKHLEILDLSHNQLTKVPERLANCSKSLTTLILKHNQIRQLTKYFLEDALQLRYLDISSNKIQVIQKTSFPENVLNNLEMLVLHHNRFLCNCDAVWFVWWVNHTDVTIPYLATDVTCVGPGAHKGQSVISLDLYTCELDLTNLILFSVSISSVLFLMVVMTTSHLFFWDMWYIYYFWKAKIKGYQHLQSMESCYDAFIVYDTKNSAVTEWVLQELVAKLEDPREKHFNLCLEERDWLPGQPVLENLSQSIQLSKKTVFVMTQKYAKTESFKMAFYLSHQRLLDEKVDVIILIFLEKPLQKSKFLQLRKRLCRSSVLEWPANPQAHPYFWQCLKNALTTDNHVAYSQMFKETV

pIC50 | Structure (SMILES)
6.82 | Cn1nc(-c2ccc(OC[C@H]3CC[C@@H](N)CC3)c(F)c2)c2cnc(N)nc21
6.96 | Cn1nc(-c2ccc(OC[C@H]3CC[C@H](N)CC3)c(F)c2)c2cnc(N)nc21
7.03 | Cc1cc(-c2ccc(OCC34CCC(N)(CC3)CC4)c(F)c2)c2cnc(N)nn12

Structure (SMILES) | pIC50
Cn1nc(-c2ccc(OCC3C[C@H]4CC[C@@H](C3)N4)c(F)c2)c2cnc(N)nc21 (stereo partly drawn) | 6.92

molecular target: T2, Toll-like receptor 9 (Mus musculus, UniProt Q9EQU3); experiment: Antagonist activity at TLR9 in mouse splenocytes assessed as inhibition of CpG1585-induced IL6 production; type: cell-based, Splenocyte; details: not given
T2 sequence (Q9EQU3 whole entry): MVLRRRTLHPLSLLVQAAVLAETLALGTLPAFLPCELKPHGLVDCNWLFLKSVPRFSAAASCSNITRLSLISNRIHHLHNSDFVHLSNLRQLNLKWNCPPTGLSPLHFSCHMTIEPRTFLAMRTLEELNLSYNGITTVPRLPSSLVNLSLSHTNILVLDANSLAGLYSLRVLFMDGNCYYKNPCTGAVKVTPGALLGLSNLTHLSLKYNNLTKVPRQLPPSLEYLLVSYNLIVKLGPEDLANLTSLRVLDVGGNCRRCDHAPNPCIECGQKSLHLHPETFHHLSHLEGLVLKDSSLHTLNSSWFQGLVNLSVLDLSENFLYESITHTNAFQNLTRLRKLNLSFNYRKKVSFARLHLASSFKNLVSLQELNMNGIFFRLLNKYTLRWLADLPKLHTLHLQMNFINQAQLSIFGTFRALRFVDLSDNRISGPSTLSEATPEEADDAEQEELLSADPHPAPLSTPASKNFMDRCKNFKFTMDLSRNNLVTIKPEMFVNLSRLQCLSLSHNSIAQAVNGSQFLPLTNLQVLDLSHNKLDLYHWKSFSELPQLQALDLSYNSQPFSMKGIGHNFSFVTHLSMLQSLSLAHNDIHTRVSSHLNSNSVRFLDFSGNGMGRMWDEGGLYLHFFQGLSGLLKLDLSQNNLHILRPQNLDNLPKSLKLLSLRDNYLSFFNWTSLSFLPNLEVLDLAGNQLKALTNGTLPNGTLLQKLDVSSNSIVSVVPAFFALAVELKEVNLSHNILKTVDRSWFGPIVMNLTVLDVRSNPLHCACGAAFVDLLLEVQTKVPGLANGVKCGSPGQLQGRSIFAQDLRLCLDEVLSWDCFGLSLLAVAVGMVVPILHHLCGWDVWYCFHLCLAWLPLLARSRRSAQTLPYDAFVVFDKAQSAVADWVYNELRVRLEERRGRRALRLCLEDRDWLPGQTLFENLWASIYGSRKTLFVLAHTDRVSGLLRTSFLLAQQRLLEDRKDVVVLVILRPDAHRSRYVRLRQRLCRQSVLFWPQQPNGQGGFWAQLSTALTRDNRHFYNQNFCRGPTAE

pIC50 | Structure (SMILES)
5.92 | Cn1nc(-c2ccc(OCC3CC4(CNC4)C3)c(F)c2)c2cnc(N)nc21
5.92 | Cn1nc(-c2ccc(OC[C@H]3CC[C@@H](N)CC3)c(F)c2)c2cnc(N)nc21
5.72 | Cn1nc(-c2ccc(OC[C@H]3CC[C@H](N)CC3)c(F)c2)c2cnc(N)nc21
6.34 | Cc1cc(-c2ccc(OCC34CCC(N)(CC3)CC4)c(F)c2)c2cnc(N)nn12

Structure (SMILES) | pIC50
Cn1nc(-c2ccc(OCC3C[C@H]4CC[C@@H](C3)N4)c(F)c2)c2cnc(N)nc21 (stereo partly drawn) | 5.92

molecular target: T3, Toll-like receptor 9 (Homo sapiens, UniProt Q9NR96); experiment: Antagonist activity at TLR9 in human PBMC assessed as inhibition of ODN2216-induced IFNalpha production; type: tissue-based; details: not given
T3 sequence (Q9NR96 whole entry): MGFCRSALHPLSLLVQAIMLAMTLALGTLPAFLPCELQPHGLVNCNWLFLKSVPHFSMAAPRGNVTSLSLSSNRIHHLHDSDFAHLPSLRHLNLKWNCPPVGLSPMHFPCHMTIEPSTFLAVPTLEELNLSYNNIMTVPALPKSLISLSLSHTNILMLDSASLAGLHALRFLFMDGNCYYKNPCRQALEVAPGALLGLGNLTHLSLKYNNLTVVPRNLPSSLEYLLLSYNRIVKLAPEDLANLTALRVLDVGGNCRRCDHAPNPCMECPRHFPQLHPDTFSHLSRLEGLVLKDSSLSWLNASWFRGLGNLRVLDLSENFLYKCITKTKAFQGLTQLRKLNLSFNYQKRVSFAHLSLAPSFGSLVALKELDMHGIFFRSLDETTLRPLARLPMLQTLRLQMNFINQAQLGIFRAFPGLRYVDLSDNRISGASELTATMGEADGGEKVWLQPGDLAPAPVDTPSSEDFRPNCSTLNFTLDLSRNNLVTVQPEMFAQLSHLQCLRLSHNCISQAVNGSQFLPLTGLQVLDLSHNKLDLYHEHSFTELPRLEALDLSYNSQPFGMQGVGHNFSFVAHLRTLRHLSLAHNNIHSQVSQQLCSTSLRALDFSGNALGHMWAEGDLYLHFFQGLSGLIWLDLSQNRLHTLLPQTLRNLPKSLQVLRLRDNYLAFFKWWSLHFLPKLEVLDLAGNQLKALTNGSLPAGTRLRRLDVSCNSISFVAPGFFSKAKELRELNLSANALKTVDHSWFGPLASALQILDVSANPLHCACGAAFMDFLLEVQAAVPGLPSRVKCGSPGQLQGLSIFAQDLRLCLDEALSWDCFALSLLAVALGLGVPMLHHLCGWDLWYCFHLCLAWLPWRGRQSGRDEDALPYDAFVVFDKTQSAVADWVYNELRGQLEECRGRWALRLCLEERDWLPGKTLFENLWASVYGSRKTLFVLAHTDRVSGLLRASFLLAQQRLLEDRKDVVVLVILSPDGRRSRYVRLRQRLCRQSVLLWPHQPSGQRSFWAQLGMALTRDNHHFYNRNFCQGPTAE

pIC50 | Structure (SMILES)
5.19 | Cn1nc(-c2ccc(OCC3CC4(CNC4)C3)c(F)c2)c2cnc(N)nc21
5.66 | Cn1nc(-c2ccc(OC[C@H]3CC[C@@H](N)CC3)c(F)c2)c2cnc(N)nc21
5.85 | Cn1nc(-c2ccc(OC[C@H]3CC[C@H](N)CC3)c(F)c2)c2cnc(N)nc21
5.48 | Cc1cc(-c2nn(C)c3nc(N)ncc23)cnc1OCC12CCC(N)(CC1)CC2
5.47 | Cc1cc(-c2ccc(OCC34CCC(N)(CC3)CC4)c(F)c2)c2cnc(N)nn12

Structure (SMILES) | pIC50
Cn1nc(-c2ccc(OCC3C[C@H]4CC[C@@H](C3)N4)c(F)c2)c2cnc(N)nc21 (stereo partly drawn) | 5.92

system: not listed separately; experiment: AUC in BALB/c mouse at 20 mg/kg, po; type: ADME, organism-based; set-up: dose 20 mg/kg; details: in vivo

AUC [µM·h] | Structure (SMILES)
28.9 | Cc1cc(-c2cnc(OCC34CCC(N)(CC3)CC4)c(C)c2)c2cnn(C)c2n1
2.98 | Cc1cc(-c2nn(C)c3nc(N)ncc23)cnc1OCC12CCC(N)(CC1)CC2

system: not listed separately; experiment: Cmax in BALB/c mouse at 20 mg/kg, po; type: ADME, organism-based; set-up: route oral, dose 20 mg/kg; details: in vivo

Cmax [nM] | Structure (SMILES)
1400 | Cc1cc(-c2cnc(OCC34CCC(N)(CC3)CC4)c(C)c2)c2cnn(C)c2n1
354 | Cc1cc(-c2nn(C)c3nc(N)ncc23)cnc1OCC12CCC(N)(CC1)CC2

system: not listed separately; experiment: Clearance in BALB/c mouse at 5 mg/kg, iv; type: ADME, organism-based; details: in vivo

clearance [mL/min/kg] | Structure (SMILES)
44 | Cc1cc(-c2cnc(OCC34CCC(N)(CC3)CC4)c(C)c2)c2cnn(C)c2n1
96 | Cc1cc(-c2nn(C)c3nc(N)ncc23)cnc1OCC12CCC(N)(CC1)CC2

system: not listed separately; experiment: Volume of distribution at steady state in BALB/c mouse at 5 mg/kg, iv; type: ADME, organism-based; details: in vivo, read-out: Vdss

Vd [L/kg] | Structure (SMILES)
13.8 | Cc1cc(-c2cnc(OCC34CCC(N)(CC3)CC4)c(C)c2)c2cnn(C)c2n1
15 | Cc1cc(-c2nn(C)c3nc(N)ncc23)cnc1OCC12CCC(N)(CC1)CC2

system: not listed separately; experiment: Terminal half life in BALB/c mouse at 5 mg/kg, iv; type: ADME, organism-based; details: in vivo, read-out: beta t1/2 (converted)

half-life [h] | Structure (SMILES)
4.9 | Cc1cc(-c2cnc(OCC34CCC(N)(CC3)CC4)c(C)c2)c2cnn(C)c2n1
4.1 | Cc1cc(-c2nn(C)c3nc(N)ncc23)cnc1OCC12CCC(N)(CC1)CC2

system: not listed separately; experiment: Oral bioavailability in BALB/c mouse at 20 mg/kg; type: ADME, organism-based; details: in vivo

bioavailability [%] | Structure (SMILES)
150 | Cc1cc(-c2cnc(OCC34CCC(N)(CC3)CC4)c(C)c2)c2cnn(C)c2n1
34 | Cc1cc(-c2nn(C)c3nc(N)ncc23)cnc1OCC12CCC(N)(CC1)CC2

system: not listed separately; experiment: Drug uptake in 129Sv mouse at 5 mg/kg, po measured after 2 hrs; type: ADME, organism-based; details: in vivo, read-out: Drug uptake

concentration at 2 h [nM] | Structure (SMILES)
300 | Cl.Cn1nc(-c2ccc(OCC34CCC(N)(CC3)CC4)c(F)c2)c2cnc(N)nc21
